The record followed here is patent US5059627A, “Nerve growth factor secretion inducing composition” (Takeda Chemical Industries, Ltd., priority 1989, dated 1991).

For series [1], the system named is mice. Conditions: po, groups of 10.
The nature of series [2]: in vivo. The note with it: mouse, po.

Molecules are shown by their SMILES. Bounds are passed on as bounds.

The compound `CC1=CC(=O)c2ccccc2C1=O` [Vitamin K0, vitamin K0] gave an LD50 in series [1] of 500 mg/kg.

`COC1=C(OC)C(=O)C(C/C=C(\C)CCC=C(C)C)=C(C)C1=O` [Ubiquinone-2, ubiquinone-2] gave an LD50 in series [2] above 500 mg/kg.

For `COc1c(O)c(C)c(CCCCCCCCCCO)c(O)c1OC` [6-(10-hydroxydecyl)-2,3-dimethoxy-5-methyl-1,4-hydroquinone], in series [2], the LD50 is above 1000 mg/kg.

`Cc1cc(O)c(C)c(C)c1O` [2,3,5-Trimethyl-1,4-hydroquinone, 2,3,5-trimethyl-1,4-hydroquinone] registered an LD50 in series [2] above 500 mg/kg.
